Reference: US9128087B2, “Nuclear receptor assay” (PamGene B.V., priority 2006, dated 2015)

Target: T1, PPAR gamma (Homo sapiens, UniProt P37231)
T1 construct: were incubated with GST-tagged PPAR gamma LBD domain (Invitrogen); purchased Invitrogen
T1 sequence (P37231 238-503 limits assumed): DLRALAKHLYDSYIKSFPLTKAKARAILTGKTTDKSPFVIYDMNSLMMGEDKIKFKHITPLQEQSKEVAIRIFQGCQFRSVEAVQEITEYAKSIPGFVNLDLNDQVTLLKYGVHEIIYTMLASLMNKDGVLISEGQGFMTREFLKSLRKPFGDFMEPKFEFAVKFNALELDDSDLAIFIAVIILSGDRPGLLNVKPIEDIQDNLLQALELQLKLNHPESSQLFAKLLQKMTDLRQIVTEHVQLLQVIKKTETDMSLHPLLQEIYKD
Experiment: PamChip microarray binding of PPAR gamma LBD to 48 co-regulator derived peptides
Type: biochemical
Conditions: 1E-3.7 M ligand compared to array without ligand
Protocol: A microarray set-up was prepared comprising 48 peptides immobilized, i.e., a set of 48 co-regulator-derived motifs corresponding to SEQ ID NOs 1, 3-13, 15-46, and 50-53. In this experiment each peptide was present once on the array and at a single peptide concentration (1E-1 M spotting concentration). Preparation of these chips was as described in Example 1. Twelve wells of a 96 well plate (FIG. 2A(a)), each well comprising the same peptide microarray, were incubated with GST-tagged PPAR gamma LBD domain (Invitrogen), and 11 different concentrations of ligand and 1 control (absence of ligand). […]
FIG. 2A(b) represents the top view of a row of wells in a 96-well plate (FIG. 2A(a)), showing the fluorescence results obtained for the PAR gamma interaction, induced by GW1929, with a the 48 peptide motives. A magnification is shown of the fluorescence image of the microarray incubated with the highest concentration (1E-3.7 M) of GW1929. […] However, when the effect of GW1929 is read out on peptide 45 (SEQ ID NO. 45), derived from PPRB (PPAR binding protein), this ligand is characterized as a binding agonist. […] As said, for all peptides an EC50 value could be determined, but in FIG. 3 only the values that could be determined accurately (regression coefficient of the fit better than 0.7) are represented.

With GW1929 the “binding of PPAR gamma to peptide 31 (SEQ ID NO. 31, NCOR1)” value was “decreased binding” and the “binding of PPAR gamma to peptide 45 (SEQ ID NO. 45, PPRB)” value was “increase binding”.
